Values quoted from earlier work, collected in US12527745B2, “Pharmaceutical dosage form for an emulsion of simethicone and loperamide” (R.P. SCHERER TECHNOLOGIES, LLC, priority 2018, dated 2026).

Details: single surfactant

## Polysorbate 80
  HLB: 15

## sorbitan mono-oleate
  HLB: 4.3
